We go through one compound from patent US20150141460A1, “Anti-inflammatory Compositions” (Cambridge Enterprise Limited, priority 2007, published 2015).

Test [1] deals with CD4+ splenocytes (IFN-γ / IL-4). Description: Ovalbumin-induced model of asthma, T-helper cell polarisation (Th1/Th2 ratio) of CD4+ splenocytes by flow cytometry. Particulars: 0.3 mg/kg daily via the oral route. In kind it is in vivo, Brown Norway rats. From the text:
Bars represent mean Th1/Th2 ratios, shown on the Y-axis, for groups of 10 animals, whiskers represent SEM; * p<0.05 versus unchallenged rats; † p<0.05 versus sensitised and challenged rats, in both cases using Student's unpaired t-test assuming equal variance, with two tails). All rats (except the ‘BN rats’ group, which was not exposed to ovalbumin) received the same sensitisation and challenge regimen, but were either treated with vehicle only (‘Sensitised+vehicle’), or with compound (I′) at 0.3 mg/kg bodyweight or with monteleukast (‘Singulair™’) at 30 mg/kg bodyweight, all administered daily by oral gavage.
(§1) Adult Brown Norway rats (200-300 g body weight; n=10 per group) were sensitised by a single intraperitoneal injection of 0.1 mg Ovalbumin on day 0. Each rat then received an intratracheal challenge with a solution of 1% ovalbumin (w/v) on day 8, and with 2% ovalbumin (w/v) on days 15, 18 and 21. The animals were then sacrificed 3 hours after the final challenge on day 21. […]
The spleen was also removed from each […] and placed in RPMI+10% FCS+antibiotics. […] The resulting cell suspension was then centrifuged (328 g; 5 mins) and washed in RPMI+10% FCS+antibiotics, before being resuspended in fresh media and counted using a haemocytometer. […]
A general note: A flow cytometer gives signals particle by particle.

In test [2] the test system is leukocytes in BAL fluid. Description: Ovalbumin-induced lung inflammation model of asthma, cell counts in BAL fluid. The format is in vivo, Brown Norway rats. Particulars: 0.3 mg/kg daily by oral gavage day 8 to 21; p<0.01.
Text: Bars represent mean cell counts, shown on the Y axis in units of 10^6 cells, for groups of […] with whiskers representing SEM; * p<0.01 versus ‘sensitised’ using Student's unpaired t-test assuming equal variance, with two tails). The horizontal line represents the average number of leukocytes present in BAL fluid from the lungs of unchallenged rats. All rats in the remaining three groups received the same sensitisation and challenge regimen, but were either treated with vehicle only (‘Sensitised’), or with compound (I′) at 0.3 mg/kg bodyweight or with monteleukast (‘Singulair™’) at 30 mg/kg bodyweight, all administered daily by oral gavage.
as §1
On sacrifice, total lung leukocyate recruitment was assessed by performing a broncheoalveolar lavage (BAL) using 4 lots of 3 ml sterile phosphate-buffered saline introduced through a tracheal cannula. For each animal, the BAL washes were combined, and the total cell population counted (using a haemocytometer). […]

Turning to `CC(C)(C)C(=O)N[C@H]1CCCNC1=O` [Compound (I′), (S)-3-(2′,2′-dimethylpropanoylamino)-tetrahydropyridin-2-one], in test [1], the “effect on Th2 polarisation (Th1/Th2 ratio)” value is “significantly reversed the Th2 polarisation”. Besides, in test [2], the “reduction of the number of leukocytes in the BAL washes” value turned out to be 70%.
